Values quoted from earlier work as cited in article PMC3388044, “Probing of Exosites Leads to Novel Inhibitor Scaffolds of HCV NS3/4A Proteinase” (PLoS ONE, 2012).
Like-named read-outs stand apart in the source and are kept apart here.

How the values were obtained:
NS3/4A V36M = conditions: cited from earlier work
HCV replicon (WT NS3/4A) = conditions: HCV replicon with luciferase readout; cited from earlier work
NS3/4A D168A = conditions: cited from earlier work
[1] = system: HCV replicon (NS3/4A D168A); conditions: cited from earlier work
[2] = system: HCV replicon (NS3/4A R155K); conditions: mutant HCV replicon with luciferase readout; cited from earlier work
[3] = system: HCV replicon (NS3/4A V36M); conditions: mutant HCV replicon with luciferase readout; cited from earlier work
[4] = system: HCV replicon (NS3/4A A156T); conditions: cited from earlier work
NS3/4A R155K = conditions: cited from earlier work
NS3/4A (WT) = conditions: purified recombinant WT NS3/4A in vitro; read-out: WT IC50 (purified enzyme); cited from earlier work
NS3/4A = target: NS3/4A; design: method as in PMID 19505593; conditions: cited from earlier work
[5] = fold change vs WT, purified recombinant enzyme
[6] = fold change vs WT, mutant HCV replicon
[7] = mutant HCV replicon with luciferase readout

CCC[C@H](NC(=O)[C@@H]1[C@H]2CCC[C@H]2CN1C(=O)[C@@H](NC(=O)[C@@H](NC(=O)c1cnccn1)C1CCCCC1)C(C)(C)C)C(=O)C(=O)NC1CC1 [Telaprevir, telaprevir]
V36M FC (purified enzyme) (NS3/4A V36M; [5]): 11.3
IC50 (NS3/4A V36M; purified recombinant mutant NS3/4A in vitro, read-out: V36M IC50 (purified enzyme)): 270 nM
IC50 (HCV replicon (WT NS3/4A)): 150 nM
D168A FC (purified enzyme) (NS3/4A D168A; [5]): 0.4
IC50 (NS3/4A D168A; purified recombinant mutant NS3/4A in vitro, read-out: D168A IC50 (purified enzyme)): 9 nM
D168A FC (replicon) [1, 6]: 0.4
IC50 [1, 7]: 46 nM
IC50 [2]: 1470 nM
IC50 [3]: 886 nM
A156T FC (replicon) [4, 6]: 105
IC50 [4, 7]: 20300 nM
R155K FC (purified enzyme) (NS3/4A R155K; [5]): 4.8
IC50 (NS3/4A R155K; purified recombinant mutant NS3/4A in vitro, read-out: R155K IC50 (purified enzyme)): 115 nM
IC50 (NS3/4A (WT)): 24 nM
Ki (NS3/4A; improved KI after fast covalent bond formation, read-out: KI after covalent bond formation): ~40 nM
Ki (NS3/4A; initial non-covalent binding step, read-out: KI, non-covalent binding step): ~6000 nM
